Measurements taken from patent US20050031581A1, “Termite feeding stimulant and method for using same” (priority 2001, published 2005).

Experiments:
Mastotermes darviniensis = details: in vivo; cited from earlier work
Coptotermes lacteus = details: in vivo; cited from earlier work
termites [1] = details: limited by volatility of the compound; cited from earlier work
termites [2] = test: Feeding on bait matrix with chitin synthesis inhibitor added; format: in vivo; details: added to the bait matrix of the bioassays
Procedure: Note that Chitin synthesis inhibitors, such as hexaflumuron, were added to the bait matrix described in the bioassays above resulting in less feeding on the bait matrix treated with hexaflumuron compared to its control. […] Accordingly, it is believed that adding sitosterol to such a bait matrix may provide a way to overcome the termites' aversion to hexaflumuron.

Reticulitermes tibialis [3] = test: Field test of sitosterol cellulose pellets in underground termite jar traps; format: in vivo; details: pellet 1% sitosterol and 99% cellulose, 15 jar traps in the field, FIG. 1
Procedure: Sitosterol was tested in the field as a feeding stimulant for Reticulitermes tibialis. Sitosterol (300 mg) was dissolved in 30 ml of acetone and added to 30 gm of cellulose powder (from Bio-Serv Inc., Frenchtown, N.J.), and the combination was dried overnight. A hydraulic press (providing 15,000 pounds per square inch force) was used to make hard pellets (wherein each pellet was approximately 3 gm, 2.5 cm diameter, 5 mm thickness, having 1% sitosterol and 99% cellulose). Control pellets of cellulose powder alone (3 gm) were made similarly.
The pellets were tested in underground termite traps made from Nalgene jars (having dimensions of approximately 10 cm diameter, 10 cm height) with 3 mm holes drilled at 3 cm intervals to allow termites to enter each jar. The jar traps were filled with soil (20% moisture). Two pellets were placed on the surface of the soil both within and at the top of each jar trap, one pellet containing cellulose (3 gm) plus sitosterol […] and the other pellet containing only cellulose (3 gm).
One of the jar traps containing a 1% sitosterol pellet and a cellulose control pellet was placed at the base of a fence post that was previously determined to be infested with termites. The traps were checked once a week for feeding. When termite feeding was apparent, both pellets were removed and weighed to determine the amount of each pellet that had been eaten. […]

Reticulitermes tibialis [4] = test: Cellulose TLC plate feeding bioassay; format: in vivo; details: every dose tested: 30, 100 and 300 ugm per cellulose square; 100 termites, up to 7 days, FIG. 2
Procedure: Such behavioral feeding bioassays were conducted using the following protocol.
(§1) Termite workers (100 total) were removed from their storage tubs and placed in a smaller plastic Rubbermaid® tub (having a volume of 414 ml) that contained soil (with a 20% by weight moisture). These termites were allowed to acclimate to their new surroundings for 24 hours before the feeding bioassay began. Solutions of sitosterol in acetone (of 1.0 ugm/ul, […], or 10 ugm/ul, respectively) were applied to three different cellulose squares with a Hamilton syringe (of 100 micro-liters (ul) capacity), wherein the squares were provided on a single thin-layer chromatography (TLC) glass plate. For the three cellulose squares, each single cellulose square (of 13.43 mg of cellulose) was evenly wetted with 30 ul of only one of the solutions. Thus, a dose of one of 30 ugm, 100 ugm or 300 ugm of sitosterol was applied, respectively, to a corresponding one of the cellulose squares. Accordingly, the concentrations on these three cellulose squares were, respectively, 2.23 ugm sitosterol/mg cellulose (equivalently, […] sitosterol to cellulose), 7.45 ugm sitosterol/milligram (mg) cellulose (equivalently, 0.745% sitosterol to cellulose), and 22.34 ugm sitosterol/mg cellulose (equivalently, 2.23% sitosterol to cellulose). Note that a fourth cellulose square was treated with 30 ul of acetone as a control. […]

Coptotermes formosanus = test: Cellulose TLC plate feeding bioassay; format: in vivo; details: 2.23, 7.45 and 22.34 ugm sitosterol/mg cellulose, FIG. 4
Procedure: as §1

Reticulitermes tibialis [5] = test: Paper feeding bioassay; format: in vivo; details: 0.60, 2.00 and 5.99 ugm sitosterol/mg paper bait substrate; 100 termites, FIG. 3
Procedure: The termites in the tub were allowed to acclimate to their new surroundings for 24 hours before the present feeding bioassay began. Each of three rectangular bait matrixes (each matrix being approximately 100 mg of bait substrate, the substrate being paper) was divided in two halves with a pencil line, each half having a 50.06 mg bait substrate upon which the termites were to feed. For each bait matrix, one half (the “experimental” half) was provided with a given sitosterol dose, and the other half was provided as a control, and accordingly had no sitosterol applied thereto. In particular, for each bait matrix, exactly one of three solutions of sitosterol in acetone (each solution having one of the concentrations: 1 ugm/ul, […], or 10 ugm/ul) was applied to the “experimental” half of the bait matrix with a Hamilton syringe (of 100 ul capacity), and only acetone was applied to the other (control) half as a control. More precisely, the experimental half of each bait matrix rectangle was evenly wetted with 30 ul of a different one of the solutions of sitosterol, thus applying on the experimental bait matrix half of each bait matrix a dose of only one of 30 ugm, 100 ugm or 300 ugm of sitosterol. The sitosterol concentrations tested were therefore 0.60, 2.00, and 5.99 ugm sitosterol/mg of bait substrate. […]

termites [6] = test: Toxic effects of sitosterol to termites; details: in vivo
From the text: (§2) Several aspects of sitosterol make it a promising compound for enhancing Coptotermes formosanus, and Reticulitermes tibialis control. […] Termite baits are most frequently placed in the soil where moisture conditions are a factor; i.e., soil having at least 20% moisture, and/or occasionally saturated with water. […] Sitosterol has little toxic risk, and it has been tested in humans as an alternative method to lower plasma cholesterol levels. Sitosterol is an economically rational additive to a termite bait system. For example, the cost of the sitosterol needed to treat one termite bait roll of the size and proportion of paper (e.g., 10 cm by 100 cm) is about one cent to reach the concentration of our highest tested dose (300 ugm).

[7] = Physical properties of sitosterol; format: physicochemical
From the text: as §2

termites [8] = details: ambient atmosphere; cited from earlier work
[9] = tested on: Coptotermes formosanus Shiraki; details: in vivo; cited from earlier work
termites [10] = details: extended feeding tests, e.g. greater than 30 days; cited from earlier work

Oc1ccc(O)cc1 [Hydroquinone]
feeding stimulation (Mastotermes darviniensis): stimulated feeding | feeding stimulation (Coptotermes lacteus): stimulated feeding | duration of phagostimulatory effects (termites [1]): one month

O=C(NC(=O)c1c(F)cccc1F)Nc1cc(Cl)c(OC(F)(F)C(F)F)c(Cl)c1 [hexaflumuron]
feeding on treated bait matrix compared to its control (termites [2]): less feeding

CC[C@H](CC[C@@H](C)[C@H]1CC[C@H]2[C@@H]3CC=C4C[C@@H](O)CC[C@]4(C)[C@H]3CC[C@]12C)C(C)C [sitosterol]
amount of pellet eaten by the termites versus cellulose control pellet (Reticulitermes tibialis [3]): more than twice as much | feeding on cellulose treated with sitosterol versus control square (Reticulitermes tibialis [4]): fed significantly more | feeding on cellulose squares having sitosterol versus control square (Coptotermes formosanus): ate substantially more | area of bait matrix half consumed versus control side (Reticulitermes tibialis [5]): consumed substantially more than the control side | toxic effects to termites (termites [6]): no toxic effects | stability and volatility [7]: stable, nonvolatile | hydrophobicity ([7]; soil moisture/water): hydrophobic compound which resists being washed off

O=C=O [CO2, carbon dioxide]
CO2 concentration attractive to termites (termites [8]): at least 0.2 % by volume

N[C@H](CC(=O)O)C(=O)O [D-aspartic acid]
feeding compared with a water control [9]: fed upon more than a water control | toxicity to termites (termites [10]): has shown toxicity to termites

N[C@@H](CCC(=O)O)C(=O)O [L-glutamic acid]
feeding compared with a water control [9]: fed upon more than a water control
